Here are results for one molecule from patent US20090081717A1, “Compositions and Methods For Signal Generation” (priority 2007, published 2009).

Structures are written as SMILES. Like-named read-outs stand apart in the source and are kept apart here.

Assay [1] has as its system alkaline phosphatase. The note with it: 1×10^−12 moles alkaline phosphatase in 0.1 M Tris, pH 9.0, 45 sec at room temperature, measured 1 sec. The protocol:
A substrate solution containing 0.8 mg/ml 3-indoxyl phosphate bis(2-amino-2-methyl-1,3-propanediol) salt (Biosynth International) and 0.4 mg/ml lucigenin (Sigma Aldrich) was prepared in 0.1 M Tris buffer, pH 9.0. 10 ul of the sample (blank (0.1 M Tris, pH 9.0 or 1×10^−12 moles alkaline phosphatase in 0.1 M Tris, pH 9.0) was added to plastic tubes. 50 ul of the substrate containing 0% DMSO, 0.1% DMSO (v/v), 1% DMSO) (v/v), 10% DMSO (v/v) and 20% DMSO (v/v) was added to respective tubes and water was added to the substrate in appropriate percentage as a control. The reaction was incubated for 45 sec at room temperature and chemiluminescence was measured for 1 sec using an Optocomp I (MGM) luminometer.

The nature of assay [2]: Chemiluminescence of indoxyl phosphate substrate solution with blank sample (no enzyme). In kind it is biochemical. The note with it: blank sample 0.1 M Tris, pH 9.0, no enzyme.

Consider `CC(N)(CO)CO.CC(N)(CO)CO.O=P(O)(O)Oc1c[nH]c2ccccc12` [3-indoxyl phosphate bis(2-amino-2-methyl-1,3-propanediol) salt], for which the Alkaline phosphatase chemiluminescence is 895,068 Relative light unit in assay [1] (substrate with 0 vol % DMSO); 899,207 Relative light unit in assay [1] (substrate with 0.1 vol % DMSO); 1,101,369 Relative light unit in assay [1] (substrate with 1 vol % DMSO); 1,909,745 Relative light unit in assay [1] (substrate with 10 vol % DMSO); 2,375,681 Relative light unit in assay [1] (substrate with 20 vol % DMSO). Moreover, the Blank chemiluminescence in assay [2] (substrate with 0 vol % DMSO) is 472 Relative light units; in assay [2] (substrate with 0.1 vol % DMSO), 511 Relative light units; in assay [2] (substrate with 1 vol % DMSO), 569 Relative light units; in assay [2] (substrate with 10 vol % DMSO) it was 1214 Relative light units; in assay [2] (substrate with 20 vol % DMSO), 1917 Relative light units.
